# US7517949B2, “Livin-derived peptides, compositions and uses thereof” (Hadasit Medical Research Services & Development Ltd., priority 2003, dated 2009)
# Key:
# Type in all cases: cell-based, human
# LB33 Mel B1 cells = assay: Etoposide-induced apoptosis, nuclear morphology, LB33 Mel B1; settings: Mel B1, high levels of Livin; etoposide 15 μg/ml
# Description: (§1) (b) Melanoma cell lines LB33 Mel A1 and B1 were treated with etoposide (15 μg/ml). Apoptosis rate was determined by nuclear morphology, as described.
# (§2) Nuclear morphology was visualized using acridin orange (Sigma) staining as described [Loo, D. T. et al. (1998) Methods Cell Biol., 57: 251-264]. […] The percentage of apoptotic to viable cells was counted by fluorescence microscopy and 500 cells were scored for each sample. Flow cytometry analysis of the apoptotic cells was done using two different methods. In the Sub-G1 assay the cells were harvested, washed with PBS and fixed using 100% methanol. […] Cells transfected with a GFP-containing plasmid were analyzed using Annexin-V-Cy5 and PI staining according to the manufacturer instructions (MBL, Japan). In stably transfected cultures with a rate of GFP-positive cells higher than 95%, all cells were analyzed for apoptosis. In transiently transfected cells, GFP expression was first analyzed (FL-1), and only GFP-positive cells were analyzed for Annexin-V-Cy5 (FL-4) and PI (FL-3) staining.
# (§3) LB33 A1 and B1 are two metastatic melanoma cell lines derived from the same patient before and after vaccination with autologous melanoma cells [Ikeda, H. et al. (1997) Immunity 6: 199-208; Lehmann, F. et al. (1995) Eur. J. Immunol. […] PARP was detected in all samples, confirming similar protein content.
# LB33 Mel A1 cells = assay: Etoposide-induced apoptosis, nuclear morphology, LB33 Mel A1; settings: Mel A1, no Livin expression; etoposide 15 μg/ml
# Description: as §1, §2, §3
# primary melanoma cells = assay: Etoposide-induced apoptosis in primary melanoma cultures (nuclear morphology); settings: etoposide 15 μg/ml, 24 and 48 hours
# Description: FIG. 8b: Six samples were selected according to the level of Livin expression (high: 5556, 55112, moderate: 5524, 55164, or undetectable: 5530, 5533). […] Apoptosis rate was determined by nuclear morphology, as described. The data shown are representative of three independent experiments, which were also confirmed by flow cytometry, using sub-G1 assay.
# Primary melanoma cells were derived and maintained as described [Lotem, M. et al. (2002) Br J Cancer, 86: 1534-1539].
# Nuclear morphology was visualized using acridin orange (Sigma) staining as described [Loo, D. T. et al. (1998) Methods Cell Biol., 57: 251-264]. […] The percentage of apoptotic to viable cells was counted by fluorescence microscopy and 500 cells were scored for each sample. Flow cytometry analysis of the apoptotic cells was done using two different methods. In the Sub-G1 assay the cells were harvested, washed with PBS and fixed using 100% methanol. Following an overnight incubation at −20° C., cells were re-hydrated with PBS for 30 minutes on ice, and then resuspended in PBS with RNase A (50 μg/ml) and stained with Propidium Iodide (PI) (Sigma) at a final concentration of 5 μg/ml. Flow cytometry analysis was performed in FL2 histogram. Cells transfected with a GFP-containing plasmid were analyzed using Annexin-V-Cy5 and PI staining according to the manufacturer instructions (MBL, Japan). In stably transfected cultures with a rate of GFP-positive cells higher than 95%, all cells were analyzed for apoptosis. In transiently transfected cells, GFP expression was first analyzed (FL-1), and only GFP-positive cells were analyzed for Annexin-V-Cy5 (FL-4) and PI (FL-3) staining.
# In order to determine whether Livin expression renders the melanoma cells resistant to chemotherapy, six melanoma samples were selected, according to their Livin expression. […] After 24 and 48 hours, cells were harvested and the percent of apoptosis determined in each sample by nuclear morphology (FIG. 8b). […]
smiles,measurement,setting,value
COc1cc([C@@H]2c3cc4c(cc3[C@@H](O[C@@H]3O[C@@H]5CO[C@@H](C)O[C@H]5[C@H](O)[C@H]3O)[C@H]3COC(=O)[C@H]23)OCO4)cc(OC)c1O [etoposide],response to etoposide (apoptosis by nuclear morphology),LB33 Mel B1 cells,completely resistant
same,response to etoposide (apoptosis by nuclear morphology),LB33 Mel A1 cells,rapidly underwent apoptosis
same,moderate resistance (percent of apoptosis),"primary melanoma cells; samples 5524 and 55164, intermediate Livin",15-25%
same,apoptosis rate,"primary melanoma cells; samples 5533 and 5530, no Livin expression",up to 55%
same,resistance to etoposide,"primary melanoma cells; samples 5556 and 55112, high Livin expression",completely resistant
